Measurements taken from ChEMBL document CHEMBL6092194, “Development of membrane-targeting chalcone derivatives as antibacterial agents against multidrug-resistant bacteria” (Eur J Med Chem, 2024).
Active and inactive are the calls of the source. The calls are words filed in the database; no cut-off is given here.

Columns and labels:
[1] = test system: Escherichia coli; assay: Ratio of MBC for Escherichia coli ATCC25922 in presence of 50% blood to MBC for Escherichia coli ATCC25922 in Mueller Hinton Broth; type: functional
[2] = test system: Acinetobacter baumannii; assay: Antibacterial activity against Acinetobacter baumannii ATCC19606 by broth microdilution assay; type: functional
[3] = test system: Staphylococcus aureus; assay: Selectivity ratio of MBC for Staphylococcus aureus ATCC43300 in presence of 50% blood to MBC for Staphylococcus aureus ATCC43300 in Mueller Hinton Broth; type: functional
[4] = test system: Escherichia coli; assay: Bactericidal activity against Escherichia coli ATCC25922 assessed as bacterial killing at 8 times of MIC measured after 8 hrs by time-kill kinetics assay relative to control; type: functional
[5] = test system: Escherichia coli; assay: Antibiofilm activity against Escherichia coli ATCC25922 assessed as inhibition of biofilm formation at 16 microg/ml relative to control; type: functional
[6] = test system: Cell membrane; assay: Disruption of cell membrane in Escherichia coli ATCC25922 assessed as increase in protein leakage; type: subcellular; details: dose 1-8 µg/ml
[7] = test system: Staphylococcus aureus; assay: Disruption of preformed biofilm in Staphylococcus aureus ATCC43300 assessed as eradication of biofilm at 32 microg/ml relative to control; type: functional; details: dose 32 µg/ml
[8] = test system: Staphylococcus aureus; assay: Bactericidal activity against Staphylococcus aureus ATCC43300 measured upto 24 hrs by time-kill kinetics assay; type: functional, organism-based; details: dose 1-8 µg/ml
[9] = test system: Cell membrane; assay: Disruption of cell membrane in Escherichia coli ATCC25922 assessed as increase in DNA leakage; details: dose 1-8 µg/ml
[10] = test system: Staphylococcus aureus; assay: Antibacterial activity against Staphylococcus aureus ATCC43300 infected in sepsis mouse model assessed as log reduction in bacterial load in liver at 10 mg/kg pre-infected with bacteria for 1 hrs followed by compound administration at 12 hrs interval for 2 days relative to control; type: functional; details: time 2 day
[11] = test system: Staphylococcus aureus; assay: Disruption of preformed biofilm in Staphylococcus aureus ATCC43300 assessed as eradication of biofilm at 8 microg/ml relative to control; type: functional; details: dose 8 µg/ml
[12] = Toxicity in BALB/c mouse assessed as survival rate at 20 to 50 mg/kg, ip administered for 7 days relative to control; type: organism-based; details: in vivo, dose 20-50 mg/kg, time 7 day
[13] = test system: Staphylococcus aureus; assay: Bactericidal activity against Staphylococcus aureus ATCC43300 in presence of 50% blood; type: functional
[14] = test system: Escherichia coli; assay: Antibacterial activity against Escherichia coli ATCC25922 infected in sepsis mouse model assessed as reduction in kidney damage at 5 to 10 mg/kg pre-infected with bacteria for 1 hrs followed by compound administration at 12 hrs interval for 2 days by H and E staining based analysis; type: functional, organism-based; details: dose 5-10 mg/kg, time 2.0 day
[15] = test system: Escherichia coli; assay: Antibacterial activity against Escherichia coli ATCC25922 infected in sepsis mouse model assessed as reduction in kidney inflammation at 5 to 10 mg/kg pre-infected with bacteria for 1 hrs followed by compound administration at 12 hrs interval for 2 days by H and E staining based analysis; type: functional, organism-based; details: dose 5-10 mg/kg, time 2.0 day
[16] = test system: Staphylococcus aureus; assay: Induction of morphological changes in Staphylococcus aureus ATCC43300 assessed as disruption of cell membrane by scanning electron microscopic analysis; type: functional, organism-based
[17] = test system: Escherichia coli; assay: Antibacterial activity against Escherichia coli ATCC25922 infected in sepsis mouse model assessed as reduction in liver damage at 5 to 10 mg/kg pre-infected with bacteria for 1 hrs followed by compound administration at 12 hrs interval for 2 days by H and E staining based analysis; type: functional, organism-based; details: dose 5-10 mg/kg, time 2.0 day
[18] = test system: Staphylococcus aureus; assay: Induction of morphological changes in Staphylococcus aureus ATCC43300 assessed as collapse of cell membrane by scanning electron microscopic analysis; type: functional, organism-based
[19] = test system: Staphylococcus aureus; assay: Antibacterial activity against erythromycin susceptible Staphylococcus aureus ATCC25923 by broth microdilution assay; type: functional
[20] = Selectivity index, ratio of HC50 for hemolytic activity in red blood cells (unknown origin) to MIC for antibacterial activity against penicillin-susceptible Escherichia coli ATCC25922; type: toxicity, cell-based, RBC; details: read-out: Selectivity Index
[21] = test system: Staphylococcus aureus; assay: Antibiofilm activity against Staphylococcus aureus ATCC43300 assessed as inhibition of biofilm formation at 1 microg/ml relative to control; type: functional
[22] = test system: Escherichia coli; assay: Antibacterial activity against Escherichia coli ATCC25922 infected in sepsis mouse model assessed as reduction in spleen damage at 5 to 10 mg/kg pre-infected with bacteria for 1 hrs followed by compound administration at 12 hrs interval for 2 days by H and E staining based analysis; type: functional, organism-based; details: dose 5-10 mg/kg, time 2.0 day
[23] = test system: Cell membrane; assay: Induction of inner membrane permeabilization in Staphylococcus aureus ATCC43300 assessed as increase in fluorescence intensity incubated for 20 mins by PI uptake assay; type: subcellular; details: dose 0.5-8 µg/ml
[24] = test system: Staphylococcus aureus; assay: Antibacterial activity against penicillin-resistant Staphylococcus aureus ATCC43300 by broth microdilution assay; type: functional
[25] = Ratio of MBC for Escherichia coli ATCC25922 in presence of 50% plasma to MBC for Escherichia coli ATCC25922 in Mueller Hinton Broth; type: functional
[26] = test system: Escherichia coli; assay: Antibacterial activity against Escherichia coli ATCC25922 infected in sepsis mouse model assessed as log reduction in bacterial load in spleen at 5 mg/kg pre-infected with bacteria for 1 hrs followed by compound administration at 12 hrs interval for 2 days relative to control; type: functional; details: time 2 day
[27] = test system: Pseudomonas aeruginosa; assay: Antibacterial activity against penicillin-susceptible Pseudomonas aeruginosa ATCC27853 by broth microdilution method; type: functional
[28] = test system: Cell membrane; assay: Disruption of cell membrane in Staphylococcus aureus ATCC43300 assessed as increase in DNA leakage; details: dose 1-8 µg/ml
[29] = test system: Escherichia coli; assay: Antibacterial activity against Escherichia coli ATCC25922 infected in sepsis mouse model assessed as reduction in liver inflammation at 5 to 10 mg/kg pre-infected with bacteria for 1 hrs followed by compound administration at 12 hrs interval for 2 days by H and E staining based analysis; type: functional, organism-based; details: dose 5-10 mg/kg, time 2.0 day
[30] = test system: Escherichia coli; assay: Antibiofilm activity against Escherichia coli ATCC25922 assessed as inhibition of biofilm formation at 8 microg/ml relative to control; type: functional
[31] = test system: Staphylococcus aureus; assay: Antibacterial activity against Staphylococcus aureus ATCC43300 infected in sepsis mouse model assessed as reduction in inflammatory cell infiltration in liver at 10 mg/kg pre-infected with bacteria for 1 hrs followed by compound administration at 12 hrs interval for 2 days by H and E staining based analysis; type: functional, organism-based; details: time 2.0 day
[32] = test system: Escherichia coli; assay: Ratio of MBC for Escherichia coli ATCC25922 in presence of 50% serum to MBC for Escherichia coli ATCC25922 in Mueller Hinton Broth; type: functional
[33] = Ratio of MBC for Staphylococcus aureus ATCC43300 measured after 6 hrs in presence of 50% plasma to MBC for Staphylococcus aureus ATCC43300 in Mueller Hinton Broth; type: functional
[34] = test system: Cell membrane; assay: Disruption of cell membrane in Staphylococcus aureus ATCC43300 assessed as fold increase in DNA leakage at 8 microg/ml relative to control; type: subcellular; details: dose 8.0 µg/ml
[35] = test system: Escherichia coli; assay: Induction of morphological changes in Escherichia coli ATCC25922 assessed as rough appearance of cell membrane by scanning electron microscopic analysis; type: functional, organism-based
[36] = test system: Escherichia coli; assay: Antibacterial activity against Escherichia coli ATCC25922 infected in sepsis mouse model assessed as log reduction in bacterial load in blood at 5 mg/kg pre-infected with bacteria for 1 hrs followed by compound administration at 12 hrs interval for 2 days relative to control; type: functional; details: time 2 day
[37] = test system: Staphylococcus aureus; assay: Selectivity ratio of MBC for Staphylococcus aureus ATCC43300 in presence of 50% serum to MBC for Staphylococcus aureus ATCC43300 in Mueller Hinton Broth; type: functional

Q: For CCCCCCOc1cc[n+](CCCOc2ccc(/C=C/C(=O)c3ccc(OCCC[n+]4ccc(OCCCCCC)cc4)cc3)cc2)cc1.[Br-].[Br-], which Ratio [1] is on record?
A: < 2

Q: And the MIC [2]?
A: 16 µg/mL

Q: And the Ratio [3]?
A: < 2

Q: And the Activity [4]?
A: 100%

Q: And the inhibition at 16 µg/mL [5]?
A: 50.9%

Q: What about the Activity [6] of the same molecule?
A: Dose-dependent-effect

Q: What about the Activity [7] of the same molecule?
A: >35.94%

Q: What about the Activity [8] of the same molecule?
A: Dose-dependent-effect

Q: What about the Activity [9] of the same molecule?
A: Dose-dependent-effect

Q: What about the “log(activity)” value [10] of the same molecule?
A: 2.13

Q: What about the Activity [11] of the same molecule?
A: 20.8%

Q: And the survival at 168 h [12]?
A: 100%

Q: And the MIC [13]?
A: 16 µg/mL

Q: And the Activity [14]?
A: Active

Q: What about the Activity [15] of the same molecule?
A: Active

Q: And the Activity [16]?
A: Active

Q: And the Activity [17]?
A: Active

Q: And the Activity [18]?
A: Active

Q: And the MIC [19]?
A: 1 µg/mL

Q: What about the selectivity ratio [20] of the same molecule?
A: 329

Q: What about the inhibition at 1 µg/mL [21] of the same molecule?
A: 6.91%

Q: And the Activity [22]?
A: Active

Q: What about the Activity [23] of the same molecule?
A: Dose-dependent-effect

Q: And the MIC [24]?
A: 0.5 µg/mL

Q: And the Ratio [25]?
A: <2

Q: And the “log(activity)” value [26]?
A: 1.92

Q: What about the MIC [27] of the same molecule?
A: 32 µg/mL

Q: And the Activity [28]?
A: Dose-dependent-effect

Q: What about the Activity [29] of the same molecule?
A: Active

Q: What about the inhibition at 8 µg/mL [30] of the same molecule?
A: 48.7%

Q: And the Activity [31]?
A: inactive

Q: What about the Ratio [32] of the same molecule?
A: < 2

Q: And the Ratio [33]?
A: <4

Q: And the fold change (FC) [34]?
A: 12

Q: And the Activity [35]?
A: Active

Q: And the “log(activity)” value [36]?
A: 0.71

Q: What about the Ratio [37] of the same molecule?
A: < 2
